Laboratory results reported in patent US8178579B2, “Dioxanes and uses thereof” (President and Fellows of Harvard College, priority 2001, dated 2012).
“Also recorded” adds a separate entry of the source.

Tested on: A549 cells
Experiment: mitotic abnormalities by immunofluorescence
Format: cell-based, human
Conditions: 18 h or 24 h treatment, TSA 10 μM in FIG. 42C
Protocol: Detection of acetylated α-tubulin and acetylated histones by immunofluorescence was performed as described in Example 6 above. For determining microtubule stability, A549 cells were treated as indicated, fixed in glutaraldehyde, and stained for acetylated α-tubulin and total α-tubulin in antibody dilution buffer (ADB, Tris-buffered saline (TBS), 0.15 M NaCl, 0.02 M Tris-Cl, pH 7.4, with 2% bovine serum albumin and 0.1% Triton-X 100). For cold-depolymerization, cells were incubated at 4° C. or 37° C. for an additional 90 minutes before fixation. For calcium depolymerization, cells were incubated at 37° C. for 10 minutes in a microtubule-stabilizing buffer (0.2% NP-40, 5 mM MgCl2, 2 mM EGTA, 2 M glycerol, 100 mM PIPES, pH 6.8) with and without the addition of CaCl2 (2 mM) before glutaraldehyde fixation. For co-localization experiments, biotubacin (50 μM) treated A549 cells were fixed in 3.7% formaldehyde in TBS and processed as for detecting acetylated α-tubulin (See Example 6 above) with biotubacin detected using streptavidin-TR (1:500). HDAC6 was detected using a rabbit polyclonal antibody (1:250-1:750; C.M.G., unpublished data) under the conditions used to detect acetylated α-tubulin (See Example 6 above). Filamentous actin in HT-1080 cells was detected using TR-conjugated phalloidin (1 μg/mL), and depolymerized actin using FITC-conjugated deoxyribonuclease (10 μg/mL), following fixation in 3.7% formaldehyde in TBS. p58 (1:100) in NIH-3T3 cells was detected after fixation in 3.7% formaldehyde in TBS. Images for these experiments were collected on a Zeiss LSM510 confocal scanning laser microscope at the appropriate wavelengths using the accompanying software and processed with Adobe Photoshop. Deconvoluted serial images of TSA and DMSO treated A549 cells were obtained by taking sections (8μ) on a Zeiss Axioskop 2 microscope using an AxioCam camera and the accompanying software. Rat hippocampal neuronal cultures were fixed at room temperature for 15 min in phosphate-buffered saline (PBS) containing 4% paraformaldehyde. […]

| Compound | mitotic abnormalities |
| --- | --- |
| CC(/C=C/C(=O)NO)=C\[C@@H](C)C(=O)c1ccc(N(C)C)cc1 [TSA, trichostatin A, reference compound] | Mitotic abnormalities in A549 cells induced by TSA; also recorded: caused a significant number of abnormal mitotic cells |
| O=C(CCCCCCC(=O)Nc1ccc([C@@H]2OC(c3ccc(CO)cc3)C[C@H](CSc3nc(-c4ccccc4)c(-c4ccccc4)o3)O2)cc1)NO (some centres unmarked) [tubacin] | did not increase the frequency of mitotic abnormalities; also recorded: had neither an effect on the number of mitotic cells nor spindle morphology |
